Measured values from PubChem BioAssay AID1963839 (Molecular Pharmacology Branch, DTP, NCI, 2024).

Tested on: 817829-284-R-J1-PDC complex spheroid viability
Test: Anticancer human tumor 817829-284-R-J1-PDC patient-derived colon adenocarcinoma cell line growth inhibition [POLQ]
Details: for IC50: curve of first compound; for viability, T/C: stronger effect = lower value; active means viability on the fitted dose curve at most 10% of control; inactive means the rest
In short: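 PDC + HUVEC + MSC complex spheroids; POLQ inhibitors ± partner drugs; top conc. at/near clinical Cmax, else 10 microM (SN-38 1 microM), half-log dilutions; 37 degrees C, 5% CO2.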

[1] = second compound 0.0316 µM, first compound 0.0316 µM
[2] = second compound 0.0316 µM, first compound 0.1 µM
[3] = second compound 0.0316 µM, first compound 0.316 µM
[4] = second compound 0.0316 µM, first compound 1 µM
[5] = second compound 0.0316 µM, first compound 3.16 µM
[6] = second compound 0.0316 µM, first compound 10 µM
[7] = second compound 0.1 µM, first compound 0.0316 µM
[8] = second compound 0.1 µM, first compound 0.1 µM
[9] = second compound 0.1 µM, first compound 0.316 µM
[10] = second compound 0.1 µM, first compound 1 µM
[11] = second compound 0.1 µM, first compound 3.16 µM
[12] = second compound 0.1 µM, first compound 10 µM
[13] = second compound 0.316 µM, first compound 0.0316 µM
[14] = second compound 0.316 µM, first compound 0.1 µM
[15] = second compound 0.316 µM, first compound 0.316 µM
[16] = second compound 0.316 µM, first compound 1 µM
[17] = second compound 0.316 µM, first compound 3.16 µM
[18] = second compound 0.316 µM, first compound 10 µM
[19] = second compound 1 µM, first compound 0.0316 µM
[20] = second compound 1 µM, first compound 0.1 µM
[21] = second compound 1 µM, first compound 0.316 µM
[22] = second compound 1 µM, first compound 1 µM
[23] = second compound 1 µM, first compound 3.16 µM
[24] = second compound 1 µM, first compound 10 µM
[25] = second compound 3.16 µM, first compound 0.0316 µM
[26] = second compound 3.16 µM, first compound 0.1 µM
[27] = second compound 3.16 µM, first compound 0.316 µM
[28] = second compound 3.16 µM, first compound 1 µM
[29] = second compound 3.16 µM, first compound 3.16 µM
[30] = second compound 3.16 µM, first compound 10 µM
[31] = second compound 10 µM, first compound 0.0316 µM
[32] = second compound 10 µM, first compound 0.1 µM
[33] = second compound 10 µM, first compound 0.316 µM
[34] = second compound 10 µM, first compound 1 µM
[35] = second compound 10 µM, first compound 3.16 µM
[36] = second compound 10 µM, first compound 10 µM
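Further: spheroids exposed to compounds for 7 days.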
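Wherever viability, T/C is given: 100% = DMSO vehicle-treated spheroids.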

C#Cc1c(F)ccc2cc(O)cc(-c3ncc4c(N5CC6CCC(C5)N6)nc(OCC56CCCN5CC(F)C6)nc4c3F)c12 (centres undefined) + COC1C(OC(N)=O)C(O)C(Oc2ccc3c(O)c(NC(=O)c4ccc(O)c(CC=C(C)C)c4)c(=O)oc3c2C)OC1(C)C
8.11 µM: IC50 (second compound 10 µM)
> 10 µM: IC50 (second compound 0.0316 µM) | IC50 (second compound 0.1 µM) | IC50 (second compound 0.316 µM) | IC50 (second compound 3.16 µM)
7.86 µM: IC50 (second compound 1 µM)
inactive: viability, T/C [1] 88.1% | viability, T/C [2] 92.5% | viability, T/C [3] 135% | viability, T/C [4] 119% | viability, T/C [5] 102% | viability, T/C [6] 93.4% | viability, T/C [7] 95.6% | viability, T/C [8] 107% | viability, T/C [9] 102% | viability, T/C [10] 114% | viability, T/C [11] 89.2% | viability, T/C [12] 106% | viability, T/C [13] 88.1% | viability, T/C [14] 105% | viability, T/C [15] 87.5% | viability, T/C [16] 116% | viability, T/C [17] 127% | viability, T/C [18] 66.5% | viability, T/C [19] 110% | viability, T/C [20] 140% | viability, T/C [21] 109% | viability, T/C [22] 126% | viability, T/C [23] 101% | viability, T/C [24] 36.5% | viability, T/C [25] 117% | viability, T/C [26] 121% | viability, T/C [27] 99.1% | viability, T/C [28] 113% | viability, T/C [29] 113% | viability, T/C [30] 56.7% | viability, T/C [31] 87.3% | viability, T/C [32] 113% | viability, T/C [33] 144% | viability, T/C [34] 101% | viability, T/C [35] 132% | viability, T/C [36] 35.4%

CC1COCCN1c1cc(C2(O)CC3CCC(C2)O3)c2cnn(-c3ccn[nH]3)c2n1 (centres undefined) + COC1C(OC(N)=O)C(O)C(Oc2ccc3c(O)c(NC(=O)c4ccc(O)c(CC=C(C)C)c4)c(=O)oc3c2C)OC1(C)C
active: viability, T/C [2] 10.7% | viability, T/C [3] 3.93% | viability, T/C [4] 3.7% | viability, T/C [5] 3.65% | viability, T/C [6] 2.96% | viability, T/C [8] 8.78% | viability, T/C [9] 4.49% | viability, T/C [10] 2.72% | viability, T/C [11] 3.01% | viability, T/C [12] 1.82% | viability, T/C [14] 8.28% | viability, T/C [15] 5.16% | viability, T/C [16] 3.2% | viability, T/C [17] 2.69% | viability, T/C [18] 2.57% | viability, T/C [20] 9.42% | viability, T/C [21] 4.54% | viability, T/C [22] 3.29% | viability, T/C [23] 3.01% | viability, T/C [24] 1.8% | viability, T/C [27] 4.65% | viability, T/C [28] 3.82% | viability, T/C [29] 2.76% | viability, T/C [30] 2.53% | viability, T/C [32] 9.85% | viability, T/C [33] 5.03% | viability, T/C [34] 4.12% | viability, T/C [35] 2.91% | viability, T/C [36] 2.64%
< 0.0316 µM: IC50 (second compound 0.0316 µM) | IC50 (second compound 0.1 µM) | IC50 (second compound 0.316 µM) | IC50 (second compound 1 µM) | IC50 (second compound 3.16 µM) | IC50 (second compound 10 µM)
inactive: viability, T/C [1] 18.5% | viability, T/C [7] 29.2% | viability, T/C [13] 25.9% | viability, T/C [19] 24.7% | viability, T/C [25] 27.9% | viability, T/C [26] 10.5% | viability, T/C [31] 21.5%
